Laboratory results: patent publication US20250051324A1, “PARP INHIBITOR, PHARMACEUTICAL COMPOSITION COMPRISING SAME, AND USE THEREOF” (KEYTHERA (SUZHOU) BIO-PHARMACEUTICALS CO., LIMITED, priority 2021, published 2025)

Columns and labels:
[1] = Liver microsome metabolism assay; details: CD1, mouse, liver microsomes
Procedure: Experimental Materials: Mixed CD1 mouse liver microsomal enzyme protein was purchased from Xenotech (#M1000), and NADPH was purchased from Abmole (#M9076).
1. To the liver microsomal enzyme reaction system, 210 μL of phosphate buffer was added, followed by 12.5 μL of liver microsomal enzyme at a concentration of 20 mg/mL. Then, 25 μL of NADPH at a concentration of 10 mM was added to the system, mixed well, and incubated in a 37° C. water bath with shaking for 10 minutes.
2. The test compound, stored at a concentration of 10 mM, was diluted to 100 μM with DMSO. Then, 2.5 μL of the diluted test compound was added to the reaction system, mixed well, and incubated in a 37° C. water bath with shaking.
3. At 0.5, 5, 10, 20, 30, and 60 minutes, 25 μL of the enzyme reaction mixture was taken and added to 125 μL of cold acetonitrile containing dexamethasone as an internal standard. The mixture was centrifuged at 4000 g for 20 minutes, and the supernatant was mixed with an equal volume of distilled water. The mixed sample was then subjected to quantitative analysis by liquid chromatography-mass spectrometry.
4. Calculation of in vitro drug metabolism half-life and drug clearance rate:
t1/2=−0.693/k. (k: the slope of the linear regression of the natural logarithm of the percentage of drug remaining versus incubation time).

[2] = tested on: peripheral blood reticulocytes; assay: Effect of compound on rat reticulocytes; assay type: in vivo; details: 4 days
Procedure: Test Objective: The effect of the compound on peripheral blood reticulocytes was evaluated to determine its impact on bone marrow hematopoietic function.
(§1) Test Compounds: Olaparib, Compound 1
(§2) Experimental Animals: Male Sprague Dawley rats were purchased from Beijing Charles River Laboratory Animal Technology Co., Ltd. Housing and Management: The experimental animals were housed in SPF-grade, temperature- and humidity-controlled clean rooms, using individually ventilated cages (IVC) with no more than 5 rats per cage. Temperature/humidity was controlled within the range of (23±3)° C./40-70%. Feed and water: SPF-grade rat feed, sterilized by cobalt-60 irradiation. Drinking water was ultrafiltered and autoclaved. Animals had free access to sterile food and water. Animal identification: ear tags.
Experimental Method: The experiment was divided into the following 5 groups: vehicle control group; Olaparib 100 mg/kg; Compound 1 0.1 mg/kg; Compound 1 0.3 mg/kg; and Compound 1 1.0 mg/kg. All treatments were administered orally by gavage once daily for 4 days. Blood samples were collected before and after treatment to measure peripheral blood reticulocyte counts.

[3] = tested on: human breast cancer (MDA-MB-436) cell line; assay: Mouse CDX tumor model (MDA-MB-436 subcutaneous xenograft); assay type: in vivo; details: for Tumor Growth Inhibition Rate (TGI): 28 days
Procedure: Test Objective: The efficacy of the compounds was evaluated in a subcutaneous xenograft model of human breast cancer (MDA-MB-436) cell line in mice.
as §1
Experimental Animals: Female NOD SCID mice, 4-5 weeks old, purchased from Nanjing Jicui.
as §2, with “Housing” for “Experimental Animals: Male Sprague Dawley rats were purchased from Beijing Charles River Laboratory Animal Technology Co., Ltd. Housing”, “5 mice” for “5 rats”, “SPF-grade mouse” for “SPF-grade rat”
Tumor Cell Line and Tumor Model: MDA-MB-436 cells (Nanjing Cobioer Biotechnology Co., Ltd., Cat. No: CBP60385) were cultured in vitro in DMEM complete medium containing 10% fetal bovine serum, 1% penicillin-streptomycin, 1% insulin, and 16 μg/mL glutathione (37° C., 5% CO2). When the cells met the requirements for the in vivo efficacy experiment, they were collected, counted, and prepared into a PBS cell suspension. Each mouse (5-6 weeks old NOD SCID) was inoculated subcutaneously on the right flank with 0.9×10^7 cells. Tumor volume was measured and calculated three times a week after inoculation. When the tumor volume reached approximately 200-300 mm^3, the mice were grouped for administration.
Experimental Groups: The experiment was divided into the following groups: vehicle control group; Olaparib 100 mg/kg group; Compound 1 0.1 mg/kg group; Compound 1 0.3 mg/kg group; and Compound 1 1.0 mg/kg group. All groups were administered orally by gavage once daily. […] After 28 days of administration, the tumor volume was used to calculate the tumor growth inhibition rate (TGI %), and the tumor inhibition effect was statistically analyzed using software such as Excel, etc.

PARP1 = PARP1 (Homo sapiens (Human), UniProt P09874); assay: PARP1 trapping assay; assay type: biochemical; details: read-out: Inhibitory Effect on PARP1 Trapping IC50
Method in brief: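 PARP1 and PARP2 with GST-Tb antibody and probe incubated with serially diluted compounds for 45 min at room temperature, then NAD added for 10 min before plate reading. Percent inhibition derived from compound, blank and vehicle control readings.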

[4] = tested on: MDA-MB-436 breast cancer cells; assay: Cell proliferation assay, MDA-MB-436; assay type: cell-based; details: Homo sapiens, MDA-MB-436, 168 h, read-out: MDA-MB-436 Cell IC50
Method in brief: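 Cells seeded 16 h, then exposed to a 9-point 1:3 compound dilution series for 7 days at 37° C., 5% CO2; DMSO-matched and cell-free controls. Viability by CellCounting-Lite luminescence; IC50 from log concentration versus % inhibition.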

Chain of PARP1 (P09874 whole entry): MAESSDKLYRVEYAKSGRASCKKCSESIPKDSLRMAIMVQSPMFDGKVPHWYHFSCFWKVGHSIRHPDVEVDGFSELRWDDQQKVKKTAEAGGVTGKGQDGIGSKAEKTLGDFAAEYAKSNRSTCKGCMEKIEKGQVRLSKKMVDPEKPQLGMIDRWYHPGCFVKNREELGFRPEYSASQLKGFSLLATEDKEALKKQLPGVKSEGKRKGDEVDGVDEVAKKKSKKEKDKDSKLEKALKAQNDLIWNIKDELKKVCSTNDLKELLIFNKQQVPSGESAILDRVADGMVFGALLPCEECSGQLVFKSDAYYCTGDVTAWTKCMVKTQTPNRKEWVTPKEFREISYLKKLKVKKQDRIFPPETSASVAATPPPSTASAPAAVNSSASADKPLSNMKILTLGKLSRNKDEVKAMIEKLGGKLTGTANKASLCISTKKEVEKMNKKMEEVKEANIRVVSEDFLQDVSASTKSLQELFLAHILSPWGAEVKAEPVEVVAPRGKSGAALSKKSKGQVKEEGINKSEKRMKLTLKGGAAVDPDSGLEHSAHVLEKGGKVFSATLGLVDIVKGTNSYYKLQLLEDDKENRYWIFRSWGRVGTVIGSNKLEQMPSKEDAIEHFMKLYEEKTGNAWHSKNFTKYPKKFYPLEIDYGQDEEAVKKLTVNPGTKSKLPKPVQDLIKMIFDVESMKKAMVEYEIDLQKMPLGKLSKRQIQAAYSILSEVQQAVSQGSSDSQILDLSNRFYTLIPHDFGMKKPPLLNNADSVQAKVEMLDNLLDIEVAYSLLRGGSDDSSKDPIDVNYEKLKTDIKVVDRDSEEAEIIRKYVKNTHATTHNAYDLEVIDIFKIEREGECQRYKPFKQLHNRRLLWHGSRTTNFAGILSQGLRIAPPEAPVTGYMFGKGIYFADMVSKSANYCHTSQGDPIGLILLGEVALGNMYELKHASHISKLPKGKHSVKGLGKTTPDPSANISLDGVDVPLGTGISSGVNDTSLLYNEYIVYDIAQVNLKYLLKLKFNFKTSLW

CNC(=O)c1ccc(N2CCN(Cc3cnc4c(C)c(C(F)(F)F)c(=O)[nH]c4c3)CC2)cn1 [Compound 1, N-methyl-5-(4-((8-methyl-6-oxo-7-(trifluoromethyl)-5,6-dihydro-1,5-naphthyridin-3-yl)methyl)piperazin-1-yl)picolinamide]
microsomal CLint at 1 µM [1]: 0.32 µL/min/mg | Reticulocyte Inhibition Rate ([2]; 0.1 mg/kg oral once daily): 12.2% | Reticulocyte Inhibition Rate ([2]; 0.3 mg/kg oral once daily): 33.8% | Reticulocyte Inhibition Rate ([2]; 1.0 mg/kg oral once daily): 41.9% | Effect on peripheral blood reticulocytes (in words) ([2]; 0.1, 0.3 and 1.0 mg/kg, p>0.05): no significant effect | Tumor Growth Inhibition Rate (TGI) ([3]; 0.1 mg/kg oral once daily): 89% | Tumor Growth Inhibition Rate (TGI) ([3]; 0.3 mg/kg oral once daily): 113% | Tumor Growth Inhibition Rate (TGI) ([3]; 1.0 mg/kg oral once daily): 115% | Body weight vs vehicle control group ([3]; MDA-MB-436 model, all treatment groups): no significant difference | IC50 (PARP1): 1.33 nM | IC50 [4]: 1.59 nM
